This passage reports EC50 and solubility results from patent US9200051B2, “Peptide compound” (TAKEDA PHARMACEUTICAL COMPANY LIMITED, priority 2013, dated 2015).

Structures are written as SMILES. Like-named read-outs stand apart in the source and are kept apart here. Square brackets hold non-standard residues; d marks the D form. Peptide text beside a SMILES is read from it. αMeF = C[C@](N)(Cc1ccccc1)C(=O)O; Aib = CC(C)(N)C(=O)O

One series addresses T1, human GIPR (Homo sapiens, UniProt P48546).
T1 construct: expressed in transfected cells; host or cells: CHO-K1 (CRE-LUC/CHO-K1), plasmid hGIPR/pMSRα-neo
T1 sequence (P48546 22-466): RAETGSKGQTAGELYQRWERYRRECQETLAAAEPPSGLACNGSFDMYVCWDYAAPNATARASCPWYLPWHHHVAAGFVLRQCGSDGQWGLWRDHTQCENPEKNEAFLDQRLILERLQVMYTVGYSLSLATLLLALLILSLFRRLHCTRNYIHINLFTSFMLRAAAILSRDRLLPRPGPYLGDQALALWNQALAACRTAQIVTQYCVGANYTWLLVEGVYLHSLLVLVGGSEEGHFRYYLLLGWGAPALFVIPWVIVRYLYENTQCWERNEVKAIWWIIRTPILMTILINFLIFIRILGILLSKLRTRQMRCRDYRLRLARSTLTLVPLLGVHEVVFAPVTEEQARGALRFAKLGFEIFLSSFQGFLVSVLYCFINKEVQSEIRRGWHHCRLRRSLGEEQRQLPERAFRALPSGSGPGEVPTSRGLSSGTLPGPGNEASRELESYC
As to the kind of experiment: Agonist activity against human GIPR, CRE-luciferase reporter assay (rise in intracellular cAMP) in hGIPR/CRE-LUC/CHO-K1 cells. The format is cell-based.

The target of another series is T2, human GLP-1R (Homo sapiens, UniProt P43220).
T2 construct: expressed in transfected cells; host or cells: CHO-K1, plasmids hGLP-1/pIRESneo3 and Cre-luc(Zeo)
T2 sequence (P43220 24-463): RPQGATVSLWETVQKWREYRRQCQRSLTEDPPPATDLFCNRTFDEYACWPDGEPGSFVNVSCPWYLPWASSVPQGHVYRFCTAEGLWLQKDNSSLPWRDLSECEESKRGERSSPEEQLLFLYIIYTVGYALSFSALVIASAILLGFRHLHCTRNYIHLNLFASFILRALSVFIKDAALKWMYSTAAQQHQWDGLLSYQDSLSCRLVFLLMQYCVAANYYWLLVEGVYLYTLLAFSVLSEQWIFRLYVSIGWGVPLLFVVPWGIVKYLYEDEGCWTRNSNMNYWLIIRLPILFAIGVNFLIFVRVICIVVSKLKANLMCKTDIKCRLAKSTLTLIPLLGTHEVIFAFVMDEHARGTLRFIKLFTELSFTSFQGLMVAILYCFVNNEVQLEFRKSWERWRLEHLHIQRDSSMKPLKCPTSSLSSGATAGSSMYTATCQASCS
Briefly: Agonist activity against human GLP-1R, CRE-luciferase reporter assay in hGLP-1R/CRE-luc/CHO-K1 cells. The format is cell-based.

Series [1] can be described thus: Solubility test in Britton-Robinson buffer, observed visually. The format is physicochemical. The protocol: The test compound of approximately 2 mg was measured precisely. Solvents (10 μL, 20 μL or 40 μL) with different pH (Britton-Robinson buffer (pH 3, 5, 7, 9)) were added to each test compound at 25° C., and the solubility was observed visually.
Another series deals with T3, human glucagon R (Homo sapiens, UniProt P47871).
T3 construct: expressed in transfected cells; host or cells: CHO-K1 (CRE-LUC/CHO-K1), plasmid hGlucagonR/pMSRα-neo
T3 sequence (P47871 26-477): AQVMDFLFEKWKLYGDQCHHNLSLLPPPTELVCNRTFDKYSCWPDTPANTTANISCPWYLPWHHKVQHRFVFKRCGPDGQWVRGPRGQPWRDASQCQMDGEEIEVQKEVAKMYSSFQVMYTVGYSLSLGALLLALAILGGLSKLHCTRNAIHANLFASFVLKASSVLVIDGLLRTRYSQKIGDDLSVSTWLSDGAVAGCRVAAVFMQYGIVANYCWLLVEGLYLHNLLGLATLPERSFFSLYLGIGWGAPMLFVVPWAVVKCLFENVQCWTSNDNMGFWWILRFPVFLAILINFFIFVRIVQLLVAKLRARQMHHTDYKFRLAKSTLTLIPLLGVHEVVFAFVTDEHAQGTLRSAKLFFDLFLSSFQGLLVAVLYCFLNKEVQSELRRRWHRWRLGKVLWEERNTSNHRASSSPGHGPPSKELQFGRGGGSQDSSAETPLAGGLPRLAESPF
Briefly: Agonist activity against human glucagon R, CRE-luciferase reporter assay in hGlucagonR/CRE-LUC/CHO-K1 cells. The format is cell-based. Background: A reporter such as luciferase makes a cellular process visible.

[2] abbreviates: hGIPR/CRE-LUC/CHO-K1 cells, 4 hours incubation, 10 nM GIP = 100%, read-out: Agonist activity (EC50) hGIPR.
Setting [3] is: hGLP-1R/CRE-luc/CHO-K1 cells, 4 hours incubation, 10 nM GLP-1 = 100%, read-out: Agonist activity (EC50) hGLP-1R.
Setting [4] is: hGlucagonR/CRE-LUC/CHO-K1 cells, 4 hours incubation, 10 nM glucagon = 100%, read-out: Agonist activity (EC50) hGCGR.

What is called EC50 is the concentration at which the effect is half-maximal. With `CC(C)C[C@H](NC(=O)[C@H](CC(C)C)NC(=O)[C@H](Cc1c[nH]c2ccccc12)NC(=O)[C@H](CCCCN)NC(=O)[C@@H](NC(=O)[C@H](Cc1ccccc1)NC(=O)[C@H](CCC(=O)O)NC(=O)[C@H](CCC(N)=O)NC(=O)[C@H](CCC(N)=O)NC(=O)[C@H](C)NC(=O)[C@H](CCC(N)=O)NC(=O)[C@H](CCCCN)NC(=O)[C@H](CC(=O)O)NC(=O)[C@H](CC(C)C)NC(=O)[C@H](Cc1ccc(O)cc1)NC(=O)[C@H](CCCCN)NC(=O)C(C)(C)NC(=O)[C@H](Cc1ccc(O)cc1)NC(=O)[C@H](CC(=O)O)NC(=O)[C@H](CO)NC(=O)[C@@H](NC(=O)[C@](C)(Cc1ccccc1)NC(=O)[C@@H](NC(=O)CNC(=O)[C@H](CCC(=O)O)NC(=O)C(C)(C)NC(=O)[C@@H](N)Cc1ccc(O)cc1)[C@@H](C)O)[C@@H](C)O)C(C)C)C(=O)N[C@@H](CCCCN)C(=O)NCC(=O)NCC(=O)N1CCC[C@H]1C(=O)N[C@@H](CO)C(=O)N[C@@H](CO)C(=O)NCC(=O)N[C@@H](C)C(=O)N1CCC[C@H]1C(=O)N1CCC[C@H]1C(=O)N1CCC[C@H]1C(=O)N[C@@H](CO)C(=O)N[C@@H](CCCCN)C(N)=O` [Example 25] (H-Y[Aib]EGT[αMeF]TSDY[Aib]KYLDKQAQQEFVKWLLKGGPSSGAPPPSK-NH2), the EC50 on human GIPR (setting [2]) is 0.013 nM; at human GLP-1R (setting [3]), 0.014 nM; on human glucagon R (setting [4]), over 1000 nM. In addition, the solubility in series [1] (pH 3), in series [1] (pH 5), in series [1] (pH 7) and in series [1] (pH 9) was over 200 mg/mL in each case.
With `CC[C@H](C)[C@H](NC(=O)C(C)(C)NC(=O)[C@H](Cc1ccc(O)cc1)NC(=O)[C@H](CC(=O)O)NC(=O)[C@H](CO)NC(=O)[C@@H](NC(=O)[C@](C)(Cc1ccccc1)NC(=O)[C@@H](NC(=O)CNC(=O)[C@H](CCC(=O)O)NC(=O)C(C)(C)NC(=O)[C@@H](N)Cc1ccc(O)cc1)[C@@H](C)O)[C@@H](C)O)C(=O)NC(C)(C)C(=O)N[C@@H](CC(C)C)C(=O)N[C@@H](CC(=O)O)C(=O)N[C@@H](CCCCN)C(=O)N[C@@H](CCC(N)=O)C(=O)N[C@@H](C)C(=O)N[C@@H](CCC(N)=O)C(=O)N[C@@H](C)C(=O)N[C@@H](CCC(=O)O)C(=O)N[C@@H](Cc1ccccc1)C(=O)N[C@H](C(=O)N[C@@H](CCCCN)C(=O)N[C@@H](Cc1c[nH]c2ccccc12)C(=O)N[C@@H](CC(C)C)C(=O)N[C@@H](CC(C)C)C(=O)N[C@@H](CCCCN)C(=O)NCC(=O)NCC(=O)N1CCC[C@H]1C(=O)N[C@@H](CO)C(=O)N[C@@H](CO)C(=O)NCC(=O)N[C@@H](C)C(=O)N1CCC[C@H]1C(=O)N1CCC[C@H]1C(=O)N1CCC[C@H]1C(=O)N[C@@H](CO)C(=O)N[C@@H](CCCCN)C(N)=O)C(C)C` [Example 2] (H-Y[Aib]EGT[αMeF]TSDY[Aib]I[Aib]LDKQAQAEFVKWLLKGGPSSGAPPPSK-NH2), the EC50 at human GIPR is 0.0068 nM; on human GLP-1R it was 0.016 nM; on human glucagon R, over 1000 nM. For the same molecule, the solubility is over 100 mg/mL in series [1] (Britton-Robinson buffer pH 3, 25° C., visual, read-out: Solubility (mg /mL) pH 3); over 100 mg/mL in series [1] (Britton-Robinson buffer pH 5, 25° C., visual, read-out: Solubility (mg /mL) pH 5); over 50 mg/mL in series [1] (Britton-Robinson buffer pH 7, 25° C., visual, read-out: Solubility (mg /mL) pH 7); over 50 mg/mL in series [1] (Britton-Robinson buffer pH 9, 25° C., visual, read-out: Solubility (mg /mL) pH 9).
Consider `CC(C)C[C@H](NC(=O)[C@H](CC(C)C)NC(=O)[C@H](Cc1c[nH]c2ccccc12)NC(=O)[C@H](CCCCN)NC(=O)[C@@H](NC(=O)[C@H](Cc1ccccc1)NC(=O)[C@H](CCC(=O)O)NC(=O)[C@H](C)NC(=O)[C@H](CCC(N)=O)NC(=O)[C@H](C)NC(=O)[C@H](CCC(N)=O)NC(=O)[C@H](CCCCN)NC(=O)[C@H](CC(=O)O)NC(=O)[C@H](CC(C)C)NC(=O)[C@H](Cc1ccc(O)cc1)NC(=O)[C@H](CCCCN)NC(=O)C(C)(C)NC(=O)[C@H](Cc1ccc(O)cc1)NC(=O)[C@H](CC(=O)O)NC(=O)[C@H](CO)NC(=O)[C@@H](NC(=O)[C@](C)(Cc1ccccc1)NC(=O)[C@@H](NC(=O)CNC(=O)[C@H](CCC(=O)O)NC(=O)C(C)(C)NC(=O)[C@@H](N)Cc1ccc(O)cc1)[C@@H](C)O)[C@@H](C)O)C(C)C)C(=O)N[C@@H](CCCCN)C(=O)NCC(=O)NCC(=O)N1CCC[C@H]1C(=O)N[C@@H](CO)C(=O)N[C@@H](CO)C(=O)NCC(=O)N[C@@H](C)C(=O)N1CCC[C@H]1C(=O)N1CCC[C@H]1C(=O)N1CCC[C@H]1C(=O)N[C@@H](CO)C(=O)N[C@@H](CCCCN)C(N)=O` [Example 24] (H-Y[Aib]EGT[αMeF]TSDY[Aib]KYLDKQAQAEFVKWLLKGGPSSGAPPPSK-NH2), for which the 50% effective concentration (EC50) at human GIPR (setting [2]) was 0.0099 nM; on human GLP-1R (setting [3]), 0.011 nM; on human glucagon R (setting [4]), over 1000 nM. Also, the solubility in series [1] (pH 3), in series [1] (pH 5), in series [1] (pH 7) and in series [1] (pH 9) was over 200 mg/mL in each case.
For the molecule `CC(C)C[C@H](NC(=O)[C@H](CC(C)C)NC(=O)[C@H](Cc1c[nH]c2ccccc12)NC(=O)[C@H](CCCCN)NC(=O)[C@@H](NC(=O)[C@H](Cc1ccccc1)NC(=O)[C@H](CCC(=O)O)NC(=O)[C@H](CCC(N)=O)NC(=O)[C@H](CCC(N)=O)NC(=O)[C@H](C)NC(=O)[C@H](CCC(N)=O)NC(=O)[C@H](CCCCN)NC(=O)[C@H](CC(=O)O)NC(=O)[C@H](CC(C)C)NC(=O)[C@H](Cc1ccc(O)cc1)NC(=O)[C@H](CCCCN)NC(=O)C(C)(C)NC(=O)[C@H](Cc1ccc(O)cc1)NC(=O)[C@H](CC(=O)O)NC(=O)[C@H](CO)NC(=O)[C@@H](NC(=O)[C@](C)(Cc1ccccc1)NC(=O)[C@@H](NC(=O)CNC(=O)[C@H](CCC(=O)O)NC(=O)C(C)(C)NC(=O)[C@@H](N)Cc1ccc(O)cc1)[C@@H](C)O)[C@@H](C)O)C(C)C)C(=O)N[C@@H](CCCCN)C(=O)NCC(=O)NCC(=O)N1CCC[C@H]1C(=O)N[C@@H](CO)C(=O)N[C@@H](CO)C(=O)NCC(=O)N[C@@H](C)C(=O)N1CCC[C@H]1C(=O)N1CCC[C@H]1C(=O)N1CCC[C@H]1C(=O)N[C@@H](CO)C(N)=O` [Example 26] (H-Y[Aib]EGT[αMeF]TSDY[Aib]KYLDKQAQQEFVKWLLKGGPSSGAPPPS-NH2), the figures for the EC50 on human GIPR (setting [2]), at human GLP-1R (setting [3]) and at human glucagon R (setting [4]) were 0.013 nM, 0.015 nM and over 1000 nM, respectively. Moreover, the solubility in series [1] (pH 3), in series [1] (pH 5), in series [1] (pH 7) and in series [1] (pH 9) was over 200 mg/mL throughout.
